Literature values in publication PMC3580849 (Bioorganic & medicinal chemistry letters, 2011).

Test system: Human M1 fibroblasts
Details: positive control, previously determined

## H-KDLLEQKRAAVDTYC-NH2 [65–79*0401, H-Lys-Asp-Leu-Leu-Glu-Gln-Lys-Arg-Ala-Ala-Val-Asp-Thr-Tyr-Cys-NH2]
  optimal concentration for activation of NO production: 50 µM
